Experimental data from US20020037902A1 (priority 2000, published 2002).

Assays:
oligodendrocytes [1] = assay: Kainate-induced death in cultures enriched with oligodendrocytes, counting of living Gal-C (+) cells; type: cell-based, Wistar rats; conditions: 48 hours
Protocol: Oligodendrocytes were obtained from primary glial cultures of spinal cords according to the slightly modified method described by Saneto et al. (Neurochemistry, a Practical Approach, IRL Press, oxford-Washington, D.C., p 27-63 (1987)). Spinal cords from 1-day old Wistar rats were dissected under sterile conditions and separated from the meninges. Five to ten spinal cords were transferred into PBS (phosphate-buffered saline: NaCl 137 mM, KCl 2.68 mM, Na2HPO4 6.45 mM, KH2PO4 1.47 mM) to which 0.25% of trypsin was added. The enzymatic treatment was stopped by addition of Dubelco's modified Eagle's medium (DMEM) to which 10% of fetal bovine serum was added (FBS). Another dissolution step was carried out by means of a 1 ml pipette, and the cell suspension was filtered. The cells were collected by centrifugation and plated at a density of 1.5−2×10^6 cells/25 cm^2 of culture medium in Dubelco's modified Eagle's medium (DMEM) to which 10% of fetal bovine serum was added. After 3 days in vitro, the cultures were fed daily. When a visible monolayer was obtained, the cultures were stirred for 2 hours at 37° C. at 250 rpm, the culture medium was removed, and the flasks were again stirred for 22 hours. The cell-containing medium was incubated at 37° C. in petri dishes for 1 hour in order for the microglia to become attached to the plastic. The oligodendrocytes were collected by centrifugation, plated at a density of 1.6×10^6/cm^2 and maintained in DMEM containing 10% FBS for 1 or 2 days. The medium was then replaced with L15 medium to which sodium bicarbonate (22 mM), conalbumin (0.1 mg/ml), putrescine (0.1 mM), insulin (5 μg/ml), sodium selenite (31 nM), glucose (20 mM), progesterone (21 nM), penicillin (100 IU/ml), streptomycin (100 μg/ml), and horse serum (2%) were added. The oligodendrocytes rapidly differentiated within 24 to 48 hours into a mature and immature phenotype.
(§1) After 48 hours, measured from the start of treatment, the living oligodendrocytes were counted.
The number of Gal-C (+) oligo-dendrocytes were divided for 2 separate counts of the labeled cells in at least 12 fields of 0.63 mm^2 under a 400X microscope. The values were expressed as the number of cells per cm^2 or as the percentage of the control.
The statistical analyses were carried out using the Student's test (t-test).
The cultures of oligodendrocytes were exposed to concentrations of 0.1 to 1 mM kainate for 48 hours.

oligodendrocytes [2] = assay: Test 3: protective effect of riluzole on oligodendrocyte death induced by kainate; type: cell-based, Wistar rats; conditions: Kainate 1000 alone (no riluzole), 48 hours
Protocol: Oligodendrocytes were obtained from primary glial cultures of spinal cords according to the slightly modified method described by Saneto et al. (Neurochemistry, a Practical Approach, IRL Press, oxford-Washington, D.C., p 27-63 (1987)). Spinal cords from 1-day old Wistar rats were dissected under sterile conditions and separated from the meninges. Five to ten spinal cords were transferred into PBS (phosphate-buffered saline: NaCl 137 mM, KCl 2.68 mM, Na2HPO4 6.45 mM, KH2PO4 1.47 mM) to which 0.25% of trypsin was added. The enzymatic treatment was stopped by addition of Dubelco's modified Eagle's medium (DMEM) to which 10% of fetal bovine serum was added (FBS). Another dissolution step was carried out by means of a 1 ml pipette, and the cell suspension was filtered. The cells were collected by centrifugation and plated at a density of 1.5−2×10^6 cells/25 cm^2 of culture medium in Dubelco's modified Eagle's medium (DMEM) to which 10% of fetal bovine serum was added. After 3 days in vitro, the cultures were fed daily. […]
as §1
The number of Gal-C (+) oligo-dendrocytes were divided for 2 separate counts of the labeled cells in at least 12 fields of 0.63 mm^2 under a 400X microscope. The values were expressed as the number of cells per cm^2 or as the percentage of the control. […]

## C=C(C)[C@H]1CN[C@H](C(=O)O)[C@H]1CC(=O)O [Kainate]
Oligodendrocytes [1]; kainate 0.01 mM
  Number of oligodendrocytes % relative to the control ± standard deviation: 108.2 ± 25.2 % relative to the control
Oligodendrocytes [1]; kainate 0.1 mM
  Number of oligodendrocytes % relative to the control ± standard deviation: 76.3 ± 27.9 % relative to the control
Oligodendrocytes [1]; kainate 0.5 mM
  Number of oligodendrocytes % relative to the control ± standard deviation: 25.3 ± 9.3 % relative to the control
Oligodendrocytes [1]; kainate 1 mM
  Number of oligodendrocytes % relative to the control ± standard deviation: 22.9 ± 7.1 % relative to the control
Oligodendrocytes [1]; kainate at doses of from about 0.1 mM to about 1 mM
  Induction of death of the oligodendrocytes through apoptosis: strongly induced death of the oligodendrocytes through apoptosis
Oligodendrocytes [2]
  Number of oligodendrocytes % relative to the control ± standard deviation: 22.9 ± 7.1 % relative to the control
